# According to patent publication US20250381118A1, “SKIN TREATMENT METHODS” (Amazentis SA, priority 2017, published 2025):
# Tests used:
# [1] = test system: MelanoDerm™ tissues (MEL-300-B); test: MelanoDerm quantification of melanin content; assay type: cell-based, human; details: 14 days; for Melanin content versus Kojic acid at 2%: 100 μM, Student t test
# Description: (§1) The MelanoDerm™ cultures from MatTek Corporation (Ashland, Massachusetts, USA) are a pigmented 3D-Living Skin Equivalent model. MEL-300 tissues are obtained by seeding keratinocytes with melanocytes. MEL-300-B cultures contain melanocytes derived from a donor tissue and are used for the evaluation of skin lightening potential. MEL-300-B were prepared in a long life maintenance medium (EPI-100-LLMM available from the MatTek Corporation) and cultured for a total of 14 days. A total of four tissue replicates (n=4) was used per group.
# (§2) Untreated tissue was used as negative control. Maintenance medium was refreshed every 2 days.
# (§3) Urolithin A was applied to the samples by addition to the maintenance medium at a final concentration of 50 and 100 µM, prepared from a stock solution at 50 mM in DMSO. A vehicle control was prepared using DMSO at 0.2% in maintenance medium. Maintenance medium added in Urolithin A or DMSO was refreshed every 2 days. Kojic acid was used as a positive control at 2% in 50:50 butylene glycol: water and applied topically (i.e. on the stratum corneum, the outermost layer of the epidermis, of the MelanoDerm™ sample). Kojic acid is a well-known inhibitor of tyrosinase, a key enzyme that is responsible for melanogenesis in melanoma and melanocytes, and is used to treat hyperpigmentation, melasma, and wrinkle in cosmetics products. Every 2 days, tissues were rinsed with sterile PBS to remove Kojic acid prior to adding a fresh preparation of kojic acid at 2% in 50:50 butylene glycol: water. Maintenance medium was changed at the same time. • a. At day 14, all tissues were photographed by top view for macroscopic analysis of pigmentation using a Nikon Eclipse Ti microscope. […] It is also visible that tissues treated with Urolithin A at 50 and 100 μM are as light as the tissues treated with the positive control Kojic acid applied topically at 2%. • b. The lightness of the samples was assessed by measuring the L value using the Konica Minolta Color Spectrophotometer (CM-700d) at day 0, 4, 7, 11 and 14. The L value tells how light or dark the color is, with black corresponding to L=0 and white to L=100. FIG. 3 represents the L values measured in the difference samples. […] At the end of the treatment, the L-values of tissues treated with Urolithin A and Kojic acid are equivalent, confirming what is visible in FIG. 2. […] Three tissues per group were used for the quantification of melanin. Tissues were first incubated in PBS to remove any phenol red remaining from the maintenance medium. Tissues were placed in a 1.7 ml microfuge tube with 500 μl of Solvable™ (Tissue and Gel Solubilizer 0.5 M-Packard BioScience Co. Catalogue No. 6NE9100) and incubated at 95° C. overnight along with melanin standards. Melanin standards were prepared by dissolving melanin (Sigma catalog number M8631) in Solvable™ at 1 mg/ml to make stock solution.
# Following overnight incubation, samples were centrifuged at 13000 rpm for 5 minutes to pellet any insoluble material. 200 μl of each sample were transferred to a 96-well plate and read at 490 nm. FIG. 4 represents the results for the melanin content expressed in μg. Statistical significance was performed using a one-way ANOVA, followed by a Dunnett post-hoc test for multiple comparison of each group against the negative control.
# [2] = test system: EpiDerm™ tissues (EPI-200, normal human-derived epidermal keratinocytes); test: EpiDerm skin cell viability (MTT) assay; assay type: cell-based; details: 96 hours; for Relative cell viability (% of negative control): basolateral, 90% = irritant threshold
# Description: Pre-screen treatment conditions: A good skin lightener should inhibit melanin synthesis but not cause cytotoxicity to the tissue. The impact of Urolithin A on skin cells viability was performed with the EpiDerm tissue (EPI-200). The reconstructed human epidermal model EpiDerm™ (EPI-200, MatTek, Ashland, USA) consists of normal human-derived epidermal keratinocytes, which have been cultured to form a multilayered highly differentiated model of the human epidermis.
# Tissues were grown in maintenance medium (EPI-100-LLMM available from the MatTek Corporation). Treatment was done basolaterally, i.e. with the test compounds dissolved in the maintenance medium, for a total duration of 96 hours. Two EpiDerm™ tissues (n=2) were used per condition, which were 1) water, 2) DMSO 0.5%, 3) Urolithin A 25 μM, 4) Urolithin A 50 μM and 5) Urolithin A 100 μM. Maintenance medium added or not in Urolithin A or DMSO was refreshed at 48 hours.
# Cell viability is measured by dehydrogenase conversion of MTT [(3-4,5-dimethylthiazole-2-yl) 2,5-diphenyltetrazoliumbromide], present in cell mitochondria, into a blue formazan salt that is quantitatively measured after extraction from tissues. The MTT assay was performed by transferring the tissues to 24-well plates containing MTT medium (1 mg/ml). After a 3 hr MTT incubation, the blue formazan salt formed by cellular mitochondria was extracted with 2.0 ml/tissue of isopropanol (extractant solution, part #MTT-100-EXT) and the optical density of the extracted formazan was determined using a spectrophotometer at 570 nm. Relative cell viability was calculated for each tissue as % of the mean of the negative control tissues.
# [3] = test system: MelanoDerm™ tissues (MEL-300-B); test: MelanoDerm macroscopic analysis of pigmentation (top view); assay type: cell-based, human; details: day 14
# Description: as §1, §2
# as §3, with “Melanin standards were prepared by dissolving melanin (Sigma catalog number M8631) in Solvable™ at 1 mg/ml to make stock solution.” left out
# rodents = details: cited from earlier work
# [4] = Solubility (water; topical cream); assay type: physicochemical; details: topical cream including lipophilic excipients, e.g. an oil and/or a medium chain triglyceride
# [5] = test system: MelanoDerm™ tissues (MEL-300-B); test: MelanoDerm lightness, L value by color spectrophotometer; assay type: cell-based, human; details: for L value versus negative control group: from day 4 until day 14
# Description: as §1, §2, §3
# [6] = Particle size distribution after micronisation (Malvern Mastersizer 2000); assay type: physicochemical; details: micronized, spiral jet mill
# Text: Urolithin A was micronized using an MC50 Spiral 20 Jetmill (Valortecs SAS, Blodelsheim, France), using filtered nitrogen, with a feed rate of 240 g/hr, a Venturi pressure of 12 bar, and a mill pressure of 12 bar. Urolithin A was micronized to give urolithin A having a particle size distribution of D90=9 μm to 15 μm and D50=2 to 9 μm. The actual particle size distribution was D90=11.5 μm, D50=3.9 μm, D10=0.7 μm, measured using a Malvern Mastersizer 2000.
compound,measurement,setting,value
"O=c1cc(CO)occ1O [Kojic acid, reference compound]",Decrease of melanin content compared to the negative control,"[1]; 2% in 50:50 butylene glycol:water, applied topically",62%
O=c1oc2cc(O)ccc2c2ccc(O)cc12 [Urolithin A],Relative cell viability (% of negative control),[2]; Urolithin A 25 μM,higher than 90%
same,Relative cell viability (% of negative control),[2]; Urolithin A 50 μM,higher than 90%
same,Relative cell viability (% of negative control),[2]; Urolithin A 100 μM,higher than 90%
same,Effect on skin cell viability / cytotoxicity,"[2]; at the tested concentrations (25, 50, 100 μM)",does not impair skin cell viability
same,Macroscopic pigmentation versus negative control and DMSO 0.2% group,[3]; 50 μM in maintenance medium,consistently lighter
same,Macroscopic pigmentation versus positive control Kojic acid 2% topical,[3]; 50 μM in maintenance medium,as light as
same,Macroscopic pigmentation versus negative control and DMSO 0.2% group,[3]; 100 μM in maintenance medium,consistently lighter
same,Macroscopic pigmentation versus positive control Kojic acid 2% topical,[3]; 100 μM in maintenance medium,as light as
same,Mitophagy,rodents; in vivo,induces mitophagy
same,Lifespan,rodents; rodents,increases lifespan
same,Solubility in topical cream composition,[4],especially soluble
same,Speed of tissue-lightening effect versus Kojic acid,[5]; 50 μM,faster tissue-lightening effects
same,L value versus negative control group,[5]; 50 μM,significantly higher
same,Speed of tissue-/skin-lightening effect versus Kojic acid,[5]; 100 μM,faster tissue-lightening effects
same,L value versus negative control group,[5]; 100 μM,significantly higher
same,Speed of tissue-/skin-lightening effect versus Kojic acid,"[5]; 100 μM, listed as urolithin A",faster skin-lightening effects
same,L value versus tissues treated with Kojic acid,"[5]; Urolithin A 50 or 100 μM, day 4 and 7",higher L value
same,L value versus tissues treated with Kojic acid,[5]; end of the treatment (day 14),equivalent
same,Decrease of melanin content compared to the negative control,[1]; 50 μM in maintenance medium,65%
same,Decrease of melanin content compared to the negative control,[1]; 100 μM in maintenance medium,67%
same,Melanin content versus Kojic acid at 2%,[1],significantly lower
same,Melanin content versus Kojic acid at 2%,[1]; listed as urolithin A,greater decrease in melanin content
same,Particle size D10,[6],0.7 μm
same,Particle size D50,[6],3.9 μm
same,Particle size D90,[6],11.5 μm
